Assays:
Assay in all cases: Post-emergence test, % damage
Format in all cases: in vivo
Settings in all cases: after 48 days
[1] = tested on: Plantago major
From the text: (§1) After 48 days, the degree of damage to the plants is rated in % damage in comparison to the development of the untreated control.

[2] = tested on: Poa annua
From the text: as §1

[3] = tested on: Chenopodium album
From the text: as §1

[4] = tested on: Festuca ovina
From the text: as §1

[5] = tested on: Trifolium repens
From the text: as §1

[6] = tested on: Taraxacum officinale
From the text: as §1

[7] = Iodosulfuron-methyl 1 g of active compound/ha
[8] = Iodosulfuron-methyl 1.25 g of active compound/ha
[9] = Iodosulfuron-methyl 2.5 g of active compound/ha
[10] = Iodosulfuron-methyl 10 g of active compound/ha
[11] = Pelargonic acid 10000 g of active compound/ha
[12] = Pelargonic acid 20000 g of active compound/ha
[13] = Pelargonic acid 30000 g of active compound/ha

For “4-iodo-2-[(4-methoxy-6-methyl-1,3,5-triazin-2-yl)carbamoylsulfamoyl]benzoate, sodium salt [Iodosulfuron-methyl]”, the “herbicidal effect [%]” value [1, 7] was 0%, the “herbicidal effect [%]” value [1, 8] was 3% and the “herbicidal effect [%]” value [1, 9] was 30%. The “herbicidal effect [%]” value [1, 10] was 53.3%, the “herbicidal effect [%]” value [2, 7] was 0% and the “herbicidal effect [%]” value [2, 8] was 0%. The “herbicidal effect [%]” value [2, 9] was 0%, the “herbicidal effect [%]” value [2, 10] was 0% and the “herbicidal effect [%]” value [3, 7] was 0%. For the same compound, the “herbicidal effect [%]” value [3, 8] was 0%, the “herbicidal effect [%]” value [3, 9] was 10% and the “herbicidal effect [%]” value [3, 10] was 40%. The “herbicidal effect [%]” value [4, 7] was 0%, the “herbicidal effect [%]” value [4, 8] was 0% and the “herbicidal effect [%]” value [4, 9] was 0%. The “herbicidal effect [%]” value [4, 10] was 6.7%, the “herbicidal effect [%]” value [5, 7] was 18.3% and the “herbicidal effect [%]” value [5, 8] was 32%. The “herbicidal effect [%]” value [5, 9] was 45%, the “herbicidal effect [%]” value [5, 10] was 80% and the “herbicidal effect [%]” value [6, 7] was 18.3%. For the same compound, the “herbicidal effect [%]” value [6, 8] was 18%, the “herbicidal effect [%]” value [6, 9] was 42% and the “herbicidal effect [%]” value [6, 10] was 85%.

In the case of `CCCCCCCCC(=O)O` [Pelargonic acid, nonanoic acid], the “herbicidal effect [%]” value [1, 11] is reported as 0%, the “herbicidal effect [%]” value [1, 12] is reported as 0% and the “herbicidal effect [%]” value [1, 13] is reported as 13.3%. For the same compound, the “herbicidal effect [%]” value [2, 11] was 0%, the “herbicidal effect [%]” value [2, 12] was 0% and the “herbicidal effect [%]” value [2, 13] was 0%. For the same compound, the “herbicidal effect [%]” value [3, 11] was 0%, the “herbicidal effect [%]” value [3, 12] was 10% and the “herbicidal effect [%]” value [3, 13] was 20%. The “herbicidal effect [%]” value [4, 11] was 0%, the “herbicidal effect [%]” value [4, 12] was 0% and the “herbicidal effect [%]” value [4, 13] was 6.7%. The “herbicidal effect [%]” value [5, 11] was 0%, the “herbicidal effect [%]” value [5, 12] was 0% and the “herbicidal effect [%]” value [5, 13] was 3.3%. The “herbicidal effect [%]” value [6, 11] was 6.7%, the “herbicidal effect [%]” value [6, 12] was 7% and the “herbicidal effect [%]” value [6, 13] was 20%.
